Source: patent publication US10858316B2, “Small molecule inhibitors of the MCL-1 oncoprotein and uses thereof” (University of Maryland, Baltimore, priority 2015, dated 2020)
Values joined by “and” are separate entries in the source; they are usually repeats but may differ in a detail not shown here. Equal entries are not always repeated. Where two headings read alike, the source gives them in different places.

What was measured:
Bcl-xL = Bcl-xL (Homo sapiens (Human), UniProt Q07817); test: Fluorescence polarization competition assay, Bcl-xL; type: binding; details: for Ki: Ki from IC50 by Nikolovska-Coleska equation, NA = no activity, read-out: Bcl-xL Ki; for Bcl-xL Exp ΔG: ΔG from experimental Ki
Description: Fluorescence polarization experiments were conducted using a BMG PHERAstar FS multimode microplate reader equipped with two PMTs for simultaneous measurements of the perpendicular and parallel fluorescence emission. The assays were performed in black polypropylene 384-well microplate (Costar) with a final volume of 20 microliter. […] Regression analysis was carried out using Origin (OriginLab, Northampton, Mass.) to fit the data to the Hill equation (1) to determine the initial binding affinity (KD) and the IC50 in the FPCA. For the fluorescence polarization competition titrations, an equation derived by Nikolovska-Coleska et al. was used to calculate the Ki from the IC50 data.

Mcl-1 [1] = molecular target: T1, Mcl-1 (Homo sapiens (Human), UniProt Q07820); test: 2D 1H-15N HSQC NMR with 15N-labeled Mcl-1; type: binding; details: 131 μM 15N-Mcl-1, 182 μM compound
Description: NMR spectra was collected at 25° C. with a Bruker AVANCE 800 NMR spectrometer (800.27 MHz for protons) equipped with pulsed-field gradients, four frequency channels, and triple resonance, z-axis gradient cryogenic probes. A one-second relaxation delay was used, and quadrature detection in the indirect dimensions was obtained with states-TPPI phase cycling; initial delays in the indirect dimensions were set to give zero- and first-order phase corrections of 90° and −180°, respectively. Data were processed using the processing program nmrPipe on Linux workstations. All proton chemical shifts are reported with respect to the H2O or HDO signal, taken to be 4.658 ppm relative to external TSP (0.0 ppm) at 37° C. The ^15N chemical shifts were indirectly referenced using the zero-point frequency at 37° C. of 0.10132905 for ^15N—^1H, as previously described.
All compounds used for NMR were initially suspended in 100% d6-DMSO. The NMR samples contained 131 μM ^15N-labeled Mcl-1, 182 μM compound, 20 mM HEPES, pH 6.8, 50 mM NaCl, 3 mM DTT, 20% D2O, and 5% D6-DMSO.

Mcl-1 [2] = molecular target: T1, Mcl-1; test: Fluorescence polarization competition assay (FPCA), Mcl-1 / FITC-Bak BH3 peptide; type: binding; details: for Ki: read-out: Mcl-1 Ki; for Mcl-1 Exp ΔG: ΔG=−RTlnKi from experimental Ki
How it was run: (§1)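 Purified Mcl-1 (affinity tag cleaved, size-exclusion polished) competed against FITC-labeled Bak-BH3 peptide, read by fluorescence polarization. IC50 from Hill-equation fit; Ki derived from IC50 by the Nikolovska-Coleska equation.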

HL-60 cell line = test: Cell viability of HL-60 cell line after treating with inhibitors for 24 hrs; type: cell-based, human
Excerpt: The moderate cell grow inhibition ability for the two carboxylic acid ester prodrugs 20 and 21 could be attributed to the enzymatic hydrolysis that generated a free acid molecule (13ag) to function as an Mcl-1 inhibitor in the cells.

A375 melanoma cells = test: Cell proliferation / viability, CellTiter-Blue assay, A375; type: cell-based, human; details: for IC50: cell titer blue assay, read-out: IC50 inhibition of cell proliferation, A375
Description: (§2) Without being limited to any one theory, the poor efficacy in cells may be attributed to the charged carboxylic acid of 3bl.
The moderate cellular activity of ±-2 may, for instance, be due to limited cell penetration owing to the charged carboxylic acid. Thus, the acetoxymethyl ester ±-12 (R1=CH2OCOCH3) was prepared as a neutral prodrug of ±-2.

SK-MEL-5 melanoma cells = test: Cell proliferation, cell titer blue assay, SK-MEL-5; type: cell-based
Excerpt: as §2

Mcl-1 [3] = test: Fluorescence polarization competition assay (FPCA), Mcl-1 / FITC-Bak BH3 peptide; type: binding, human; details: for Selectivity, Ki (Bcl-xL) divided by Ki (Mcl-1): Mcl-1 over Bcl-xL; for Exp. ΔG diff.: between Mcl-1 and Bcl-xL, positive favors Mcl-1
How it was run: as §1

[4] = FPCA with FITC-Bak, Ki from IC50 by Nikolovska-Coleska equation
[5] = read-out: HL-60 IC50 0.5% FBS, 0.5% FBS
[6] = read-out: HL-60 IC50 10% FBS, 10% FBS
[7] = CellTiter-Blue assay, read-out: GI50, viability of A375 cells
[8] = read-out: IC50 inhibition of cell proliferation, SK-MEL-5

T1 sequence (Q07820 172-327): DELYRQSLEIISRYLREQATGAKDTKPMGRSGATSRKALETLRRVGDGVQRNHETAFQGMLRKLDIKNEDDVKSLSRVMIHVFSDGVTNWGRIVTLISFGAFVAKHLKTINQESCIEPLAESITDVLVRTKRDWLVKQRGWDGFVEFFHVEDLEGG
Sequence of Bcl-xL (Q07817 whole entry): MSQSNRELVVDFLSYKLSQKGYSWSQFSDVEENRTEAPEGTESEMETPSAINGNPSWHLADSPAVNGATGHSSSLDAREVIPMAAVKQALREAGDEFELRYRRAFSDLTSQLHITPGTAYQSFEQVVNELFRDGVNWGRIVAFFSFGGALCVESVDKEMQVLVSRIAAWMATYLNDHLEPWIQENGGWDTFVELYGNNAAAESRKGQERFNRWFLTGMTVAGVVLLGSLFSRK

Cc1cc(Oc2ccc(S(=O)(=O)N(CC(C)C)c3ccc(C(=O)O)c(O)c3)cc2)cc(C)c1Cl [4jc117-5 13ak]
Ki (Bcl-xL): 1.63 ± 0.177 µM | Mcl-1 backbone 1H-15N chemical shift perturbation on compound binding (Mcl-1 [1]): R263 and T266 were both perturbed | Ki (Mcl-1 [2]; [4]): 0.778 ± 0.05 µM | Ki (Mcl-1 [2]; FPCA): 0.778 µM

COC(=O)c1ccc(N(CC(C)C)S(=O)(=O)c2ccc(Oc3ccccc3)cc2)cc1O [LC-4-131 20]
IC50 (HL-60 cell line; [5]): 68.1 µM | IC50 (HL-60 cell line; [6]): 76.4 µM | Ki (Mcl-1 [2]; [4]): > 500 µM

Cc1cc(Oc2ccc(S(=O)(=O)N(Cc3ccccc3)c3ccc(C(=O)O)c(O)c3)cc2)cc(C)c1Cl [LC-4-118 13cc]
Ki (Bcl-xL): 1.67 ± 0.351 µM | IC50 (HL-60 cell line; [5]): < 7.5 µM | IC50 (HL-60 cell line; [6]): 53.2 µM | Ki (Mcl-1 [2]; [4]): 0.659 µM and 0.629 µM

CC(C)CN(c1ccc(OC(C)C)cc1)S(=O)(=O)c1cc(C(=O)O)c(O)c2ccccc12 [Compound 3ba, 1-Hydroxy-4-(N-isobutyl-N-(4-isopropoxyphenyl)sulfamoyl)-2-naphthoic Acid]
Ki (Bcl-xL): 6.08 ± 0.81 µM | IC50 (A375 melanoma cells; Homo sapiens, A-375): 150 µM | Mcl-1 backbone 1H-15N chemical shift perturbation on compound binding (Mcl-1 [1]): perturbation of the chemical shifts | Ki (Mcl-1 [2]; [4]): 0.487 µM

CC(=O)OCOC(=O)c1ccc(N(CC(C)C)S(=O)(=O)c2ccc(Oc3ccccc3)cc2)cc1O [LC-4-141 21]
IC50 (HL-60 cell line; [5]): 46.4 µM | IC50 (HL-60 cell line; [6]): > 120 µM

CC(C)CN(c1ccc(C(=O)O)c(O)c1)S(=O)(=O)c1ccc(Oc2ccccc2)cc1 [LC-4-099 13ag]
Ki (Bcl-xL): 18 ± 4.6 µM | IC50 (HL-60 cell line; [5]): 18.5 µM | IC50 (HL-60 cell line; [6]): > 120 µM | Ki (Mcl-1 [2]; [4]): 5.77 µM and 5.8 µM

Cc1cc(Oc2ccc(S(=O)(=O)N3CC(C(=O)O)Cc4ccccc43)cc2)cc(C)c1Cl (racemic) [±-2]
GI50 (A375 melanoma cells; [7]): 50 µM | GI50 (A375 melanoma cells; read-out: GI50, viability of A375 melanoma cells): 50 µM | Mcl-1 backbone 1H-15N chemical shift perturbation on compound binding (Mcl-1 [1]): significant chemical shift changes | Ki (Mcl-1 [2]; [4]): 0.12 ± 0.053 µM | Ki (Mcl-1 [2]; FPCA): 0.12 µM

CC(=O)OCOC(=O)C1Cc2ccccc2N(S(=O)(=O)c2ccc(Oc3cc(C)c(Cl)c(C)c3)cc2)C1 (racemic) [±-12]
GI50 (A375 melanoma cells; [7]): 73 µM | Ki (Mcl-1 [2]; FPC assay): > 500 µM | Ki (Mcl-1 [2]; [4]): > 500 µM

COC(=O)c1cc(S(=O)(=O)N(CC(C)C)c2ccc(OC(C)C)cc2)c2ccccc2c1O [Compound 13]
IC50 (A375 melanoma cells): ~300 µM | IC50 (SK-MEL-5 melanoma cells; [8]): ~300 µM | Binding affinity to Mcl-1 in vitro (Mcl-1 [2]; FPCA): no binding affinity

Cc1cc(CCCN(Cc2ccccc2)c2ccc(C(=O)O)c(O)c2)cc(C)c1Cl [LC-5-188 35]
Ki (Bcl-xL): 2.98 ± 0.406 µM | IC50 (HL-60 cell line; [5]): 7.36 µM | IC50 (HL-60 cell line; [6]): 88 µM | Ki (Mcl-1 [2]; [4]): 1.45 µM

CC(=O)OCOC(=O)c1cc(S(=O)(=O)N(CC(C)C)c2ccc(OC(C)C)cc2)c2ccccc2c1O [Compound 14]
IC50 (A375 melanoma cells): 15 µM | IC50 (SK-MEL-5 melanoma cells; [8]): 15 µM | Binding affinity to Mcl-1 in vitro (Mcl-1 [2]; FPCA): no binding affinity

Cc1cc(Oc2ccc(S(=O)(=O)N(CC(C)C)c3ccc(O)c(C(=O)O)c3)cc2)cc(C)c1Cl [JY-5-304 18bd]
Ki (Bcl-xL): 2.91 ± 0.191 µM | IC50 (HL-60 cell line; [5]): 9.82 µM | IC50 (HL-60 cell line; [6]): > 120 µM | Ki (Mcl-1 [2]; [4]): 0.586 ± 0.041 µM | Ki (Mcl-1 [2]; FPCA): 0.586 µM

Cc1cc(Oc2ccc(N(Cc3ccccc3)S(=O)(=O)c3cc(C(=O)O)c(O)c4ccccc34)cc2)cc(C)c1Cl [Compound 3bl, 4-(N-Benzyl-N-(4-(4-chloro-3,5-dimethylphenoxy)phenyl)sulfamoyl)-1-hydroxy-2-naphthoic Acid]
Ki (Bcl-xL): 0.34 ± 0.13 µM | IC50 (A375 melanoma cells; Homo sapiens, A-375): 50 µM | IC50 (SK-MEL-5 melanoma cells; Homo sapiens, SK-MEL-5, read-out: IC50 inhibition of cell proliferation, SK-MEL-5): 90 µM | Ki (Mcl-1 [2]; FPCA): 0.031 µM

O=C(O)c1cc(S(=O)(=O)Nc2ccc3ccccc3c2)c2ccccc2c1O [Compound 3q, 1-Hydroxy-4-(N-(naphthalen-2-yl)sulfamoyl)-2-naphthoic Acid]
Ki (Bcl-xL): 68.5 ± 36.3 µM | Selectivity, Ki (Bcl-xL) divided by Ki (Mcl-1) (Mcl-1 [3]): 15 | Ki (Mcl-1 [2]; [4]): 4.58 ± 1.56 µM

Cc1cc(Oc2ccc(S(=O)(=O)N(Cc3ccccc3)c3ccc(C(=O)NS(=O)(=O)c4ccc(NCC5CCOCC5)c([N+](=O)[O-])c4)c(O)c3)cc2)cc(C)c1Cl [LC-5-131 31]
Ki (Bcl-xL): 1.61 ± 0.176 µM | IC50 (HL-60 cell line; [5]): 9.96 µM | IC50 (HL-60 cell line; [6]): > 120 µM | Ki (Mcl-1 [2]; [4]): 0.8 ± 0.07 µM | Ki (Mcl-1 [2]; FPCA): 0.8 µM

O=C(O)c1cc(S(=O)(=O)Nc2ccc(Br)cc2)c2ccccc2c1O [1; 3a]
Bcl-xL Exp ΔG (Bcl-xL): -5.85 kcal/mol | Exp. ΔG diff. (Mcl-1 [3]): 1.73 kcal/mol | Mcl-1 Exp ΔG (Mcl-1 [2]): -7.58 kcal/mol

COc1ccc(NS(=O)(=O)c2cc(C(=O)O)c(O)c3ccccc23)cc1 [3z; MEL-3-018]
Bcl-xL Exp ΔG (Bcl-xL): -5.65 kcal/mol | Exp. ΔG diff. (Mcl-1 [3]): 1.06 kcal/mol | Mcl-1 Exp ΔG (Mcl-1 [2]): -6.71 kcal/mol

Cc1cc(Oc2ccc(NS(=O)(=O)c3cc(C(=O)O)c(O)c4ccccc34)cc2)cc(C)c1Cl [Compound 3bi, 4-(N-(4-(4-Chloro-3,5-dimethylphenoxy)phenyl)sulfamoyl)-1-hydroxy-2-naphthoic Acid]
Ki (Bcl-xL): 0.48 ± 0.05 µM | Selectivity, Ki (Bcl-xL) divided by Ki (Mcl-1) (Mcl-1 [3]): 4.1 | Ki (Mcl-1 [2]; [4]): 0.117 ± 0.06 µM

O=C(O)c1cc(S(=O)(=O)Nc2ccc([N+](=O)[O-])cc2)c2ccccc2c1O [3ac; MEL-3-005]
Bcl-xL Exp ΔG (Bcl-xL): -6.31 kcal/mol | Exp. ΔG diff. (Mcl-1 [3]): 0.98 kcal/mol | Mcl-1 Exp ΔG (Mcl-1 [2]): -7.29 kcal/mol
